Reference: patent US5773414A, “Endothelin antagonists” (Warner-Lambert Company, priority 1997, dated 1998)
Where a name gives a salt, the structure may show the parent alone. Read-outs that look alike come from different tables or passages of the source. Square brackets hold non-standard residues; d marks the D form. Peptide text beside a SMILES is read from it. dDip = N[C@@H](C(=O)O)C(c1ccccc1)c1ccccc1; d2Nal = N[C@H](Cc1ccc2ccccc2c1)C(=O)O; Orn = NCCC[C@H](N)C(=O)O

Legend:
[1] = tested on: ET-1 induced bronchoconstriction and tracheal smooth muscle contraction; conditions: allergic sheep; cited from earlier work
endotoxic shock = conditions: mouse model of endotoxic shock; cited from earlier work
[2] = tested on: pulmonary artery rings contracted by SRTX-6c; test: In vitro isolated vessel study, pulmonary artery rings, agonist SRTX-6c; parameters: species or system rabbit; conditions: Table III, endothelium-denuded rings
Procedure: In Vitro (Isolated Vessel) Studies
Male New Zealand rabbits were killed by cervical dislocation and exsanguination. Femoral and pulmonary arteries were isolated, cleaned of connective tissue, and cut into 4 mm rings. The endothelium was denuded by placing the rings over hypodermic tubing (32 gauge for femoral rings and 28 gauge for pulmonary rings, Small Parts Inc., Miami, Fla.) and gently rolling them. Denuded rings were mounted in 20 mL organ baths containing Krebs-bicarbonate buffer (composition in mM: NaCl, 118.2; NaHCO3, 24.8; KCl, 4.6; MgSO4, 7.H2 O, 1.2; KH2 PO4, 1.2; CaCl2. 2H2 O; Ca--Na2 EDTA, 0.026; Dextrose, 10.0), that was maintained at 37° C., and gassed continuously with 5% CO2 in oxygen (pH 7.4). Resting tension was adjusted to 3.0 g for femoral and 4.0 g pulmonary arteries; the rings were left for 90 minutes to equilibrate. Tension was monitored with force displacement transducers (Grass FT03, Quincy, Mass.) and recorded on a polygraph (Gould 2108, Cleveland, Ohio) recorder.
Vascular rings were tested for a lack of functional endothelium, i.e., lack of an endothelium-dependent relaxation response to carbachol (1.0 μM) in norepinephrine (0.03 μM) contracted rings. […]
For the in vitro experiments compounds were dissolved in 0.1% acetic acid in distilled water. […] The antagonist activity of various compounds are expressed as PA2 values in Table III.

[3] = target: T1, endothelin-stimulated inositol phosphate accumulation in Rat-1 cells (Rattus norvegicus, UniProt P26684); test: Inositol Phosphate Accumulation; type: cell-based
T1 sequence (P26684 21-426): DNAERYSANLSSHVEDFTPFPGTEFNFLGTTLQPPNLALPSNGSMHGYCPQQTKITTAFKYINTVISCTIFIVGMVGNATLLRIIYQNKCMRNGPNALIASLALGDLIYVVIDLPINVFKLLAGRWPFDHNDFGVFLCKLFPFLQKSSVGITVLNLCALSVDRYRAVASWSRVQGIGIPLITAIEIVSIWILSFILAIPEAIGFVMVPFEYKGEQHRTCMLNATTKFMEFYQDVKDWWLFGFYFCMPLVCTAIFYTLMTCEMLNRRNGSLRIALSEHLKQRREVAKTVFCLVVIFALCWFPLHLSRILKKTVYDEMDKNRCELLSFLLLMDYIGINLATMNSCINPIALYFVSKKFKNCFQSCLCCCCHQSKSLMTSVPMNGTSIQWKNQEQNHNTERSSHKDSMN
Procedure: Inositol Phosphate Accumulation
The functional activity of compounds of Formula I is determined in Rat-1 cells by measuring intra-cellular levels of second messengers. […] Antagonist activity is assessed as the ability of added compounds to reduce endothelin-stimulated inositol phosphate accumulation.

ETA = target: T2, ETA (Oryctolagus cuniculus, UniProt A5A8K3); test: Endothelin Receptor Binding Assay-A (ETA), intact cell binding of [125I]-ET-1; parameters: species or system rabbit; conditions: Table IIa; rabbit renal artery vascular smooth muscle cells; read-out: Binding Assay IC50 at Receptor Subtypes ETA
T2 construct: The cells used were rabbit renal artery vascular smooth muscle cells; endogenous in cells; host or cells: rabbit renal artery vascular smooth muscle cells
T2 sequence (A5A8K3 21-427): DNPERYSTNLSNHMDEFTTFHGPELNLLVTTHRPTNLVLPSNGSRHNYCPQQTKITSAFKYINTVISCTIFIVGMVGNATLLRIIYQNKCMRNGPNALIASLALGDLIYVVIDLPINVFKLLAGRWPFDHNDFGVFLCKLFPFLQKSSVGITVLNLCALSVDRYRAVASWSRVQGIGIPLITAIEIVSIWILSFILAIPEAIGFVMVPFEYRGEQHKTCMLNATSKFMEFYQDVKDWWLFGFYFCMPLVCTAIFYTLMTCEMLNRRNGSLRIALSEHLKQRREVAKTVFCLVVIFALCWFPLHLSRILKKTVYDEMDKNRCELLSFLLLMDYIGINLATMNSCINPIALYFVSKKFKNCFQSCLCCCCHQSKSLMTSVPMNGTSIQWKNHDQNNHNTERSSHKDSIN
Procedure: The cells used were rabbit renal artery vascular smooth muscle cells grown in a 48-well dish (1 cm^2) (confluent cells).
The growth media was Dulbeccos Modified Eagles/Ham's F12 which contained 10 fetal bovine serum and antibiotics (penicillin/streptomycin/fungizone).
Second, remove the assay buffers, place the dish on ice, and add 150 μL of cold assay buffer described above to each well. […] Next, place dish in a 37° C. water bath for about 2 hours and gently agitate the dish every 15 minutes. Discard the radioactive incubation mixture in the sink and wash wells 3 times with 1 mL of cold phosphate buffered saline. Last, add […] of 0.25M sodium hydroxide, agitate for 1 hour on rotator, and then transfer the sodium hydroxide extract to gamma counting tubes and count the radioactivity.

ETB = target: T3, ETB (Rattus norvegicus, UniProt P21451); test: Endothelin Receptor Binding Assay-B (ETB), [125I]-ET-1 binding in rat cerebellar membranes; conditions: Table IIa; rat cerebellar membranes; read-out: Binding Assay IC50 at Receptor Subtypes ETB
T3 construct: thaw one aliquot of frozen rat cerebellar membranes; from tissue; host or cells: rat cerebellar membranes
T3 sequence (P21451 27-442): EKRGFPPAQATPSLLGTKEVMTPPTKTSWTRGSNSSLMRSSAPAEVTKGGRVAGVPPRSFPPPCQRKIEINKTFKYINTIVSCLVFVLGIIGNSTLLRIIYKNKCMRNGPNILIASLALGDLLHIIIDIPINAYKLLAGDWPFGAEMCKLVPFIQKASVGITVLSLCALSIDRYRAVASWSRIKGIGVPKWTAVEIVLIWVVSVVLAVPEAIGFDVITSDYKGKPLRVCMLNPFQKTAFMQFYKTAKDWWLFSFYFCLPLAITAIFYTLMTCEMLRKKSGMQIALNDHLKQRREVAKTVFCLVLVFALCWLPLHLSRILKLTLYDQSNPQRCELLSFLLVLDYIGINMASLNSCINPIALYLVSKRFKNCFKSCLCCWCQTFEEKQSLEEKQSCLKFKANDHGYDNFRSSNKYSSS
Procedure: The tissue is made up of 20 mM tris(hydroxymethyl)aminomethane hydrochloride (Trizma) buffer, 2 mM ethylenediaminetetraacetate, 100 μM phenylmethylsulfonyl fluoride.
First, thaw one aliquot of frozen rat cerebellar membranes (2 mg protein in 0.5 mL). Next, add 0.5 mL membrane aliquot to 4.5 mL cold tissue buffer, polytron at 7,500 revolutions per minute for 10 seconds. Finally, dilute tissue suspension 1/100 (0.1 mL suspension+9.9 mL tissue buffer), polytron again, and place ice.
Mix in 150 μL of tissue to each tube, vortex briefly, then tap to force all liquids to bottom (total assay volume=250 μL). Then place the tubes in a 37° C. water bath for 2 hours.
Add 2.5 mL cold water buffer (50 mM Trizma buffer) to each tube, filter, and then wash tube with additional 2.5 mL wash buffer and add to filter. Finally, wash filters with an additional 2.5 mL of cold wash buffer.
Count filters for radioactivity in gamma counter.

[4] = target: T4, endothelin receptor (rat heart ventricle) (Rattus norvegicus, UniProt P26684); test: Rat Heart Ventricle Binding Assay ([125I]-ET-1); conditions: Table II
T4 sequence (P26684 21-426): T1 sequence (P26684 21-426)
Procedure: Rat Heart Ventricle Binding Assay
IC50 values are calculated by weighing nonlinear regression curve-fitting to the mass-action (Langmuir) equation.

| SMILES | IC50 (ETA) | IC50 (ETB) | inhibition at 10 µM [4] | other results |
| --- | --- | --- | --- | --- |
| CC(C)C[C@@H]1NC(=O)[C@@H](C(C)C)NC(=O)[C@@H]2CCCN2C(=O)[C@@H](CC(=O)O)NC(=O)[C@@H](Cc2c[nH]c3ccccc23)NC1=O [BQ-123] (cyclo(L[dW][dD]P[dV])) | – | – | – | effect on ET-1 induced bronchoconstriction and tracheal smooth muscle contraction [1]: block ET-1 induced bronchoconstriction and tracheal smooth muscle contraction; survival rate (endotoxic shock): significantly increased |
| CC[C@H](C)[C@H](NC(=O)[C@H](CC(=O)O)NC(=O)[C@H](CC(C)C)NC(=O)[C@H](NC(C)=O)C(c1ccccc1)c1ccccc1)C(=O)N[C@H](C(=O)N[C@@H](Cc1c[nH]c2ccccc12)C(=O)O)[C@@H](C)CC [Disodium salt of Ac-D-Dip-Leu-Asp-Ile-Ile-Trp] (Ac-[dDip]LDIIW-OH) | – | – | – | pA2, rabbit pulmonary artery [2]: 6.26 |
| CC[C@H](C)[C@H](NC(=O)[C@H](CC(=O)O)NC(=O)[C@H](CC(C)C)NC(=O)[C@H](N)Cc1ccc2ccccc2c1)C(=O)N[C@H](C(=O)N[C@@H](Cc1c[nH]c2ccccc12)C(=O)O)[C@@H](C)CC [Example 4, D-2-Nal--Leu--Asp--Ile--Ile--Trp] (H-[d2Nal]LDIIW-OH; N-terminus and C-terminus assumed) | – | – | – | inhibition at 50 µM ([3]; Table II, read-out: IP (Inositol Phosphate) Accumulation, Inhibition): 53%; inhibition at 50 µM ([3]; Table IIa, read-out: IP (Inositol Phosphate) Accumulation, % Inhibition): 53% |
| CC[C@H](C)[C@H](NC(=O)[C@H](CC(=O)O)NC(=O)[C@@H](Cc1ccccc1)NC(C)=O)C(=O)N[C@H](C(=O)N[C@@H](Cc1c[nH]c2ccccc12)C(=O)O)[C@@H](C)CC [Example 11, Ac--D--Phe--Asp--Ile--Ile--Trp] (Ac-[dF]DIIW-OH) | 9100 nM | 9300 nM | – | inhibition at 10 µM ([3]; Table IIa, @ 10 μM, read-out: IP (Inositol Phosphate) Accumulation, % Inhibition): 30% |
| CC[C@H](C)[C@H](NC(=O)[C@H](CC(=O)O)NC(=O)[C@H](CC(C)C)NC(=O)[C@H](NC(C)=O)C(c1ccccc1)c1ccccc1)C(=O)N[C@@H](CCCCN)C(=O)N[C@@H](Cc1c[nH]c2ccccc12)C(=O)O [Example 17, Ac--D--Dip--Leu--Asp--Ile--Lys--Trp] (Ac-[dDip]LDIKW-OH) | > 10000 nM | 4200 nM | 24.6% | – |
| CC[C@H](C)[C@H](NC(=O)[C@H](CC(=O)O)NC(=O)[C@H](CC(C)C)NC(=O)[C@H](NC(C)=O)C(c1ccccc1)c1ccccc1)C(=O)N[C@@H](CCC(=O)O)C(=O)N[C@@H](Cc1c[nH]c2ccccc12)C(=O)O [Example 18, Ac--D--Dip--Leu--Asp--Ile--Glu--Trp] (Ac-[dDip]LDIEW-OH) | – | – | 37% | – |
| CC[C@H](C)[C@H](NC(=O)[C@H](CC(=O)O)NC(=O)[C@H](CCC(=O)O)NC(=O)[C@H](NC(C)=O)C(c1ccccc1)c1ccccc1)C(=O)N[C@H](C(=O)N[C@@H](Cc1c[nH]c2ccccc12)C(=O)O)[C@@H](C)CC [Example 20, Ac--D--Dip--Glu--Asp--Ile--Ile--Trp] (Ac-[dDip]EDIIW-OH) | 25 nM | 52 nM | – | pA2, rabbit pulmonary artery [2]: 6.85 |
| CC[C@H](C)[C@H](NC(=O)[C@H](CC(=O)O)NC(=O)[C@H](CCCN)NC(=O)[C@H](NC(C)=O)C(c1ccccc1)c1ccccc1)C(=O)N[C@H](C(=O)N[C@@H](Cc1c[nH]c2ccccc12)C(=O)O)[C@@H](C)CC [Example 21, Ac--D--Dip--Orn--Asp--Ile--Ile--Trp] (Ac-[dDip][Orn]DIIW-OH) | 15 nM | 220 nM | – | inhibition at 0.05 µM ([4]; @ 0.05 μM): 79% |
| CC[C@H](C)[C@H](NC(=O)[C@H](CC(=O)O)NC(=O)[C@@H](CC(C)C)NC(=O)[C@H](NC(C)=O)C(c1ccccc1)c1ccccc1)C(=O)N[C@H](C(=O)N[C@@H](Cc1c[nH]c2ccccc12)C(=O)O)[C@@H](C)CC [Example 23, Ac--D--Dip--D--Leu--Asp--Ile--Ile--Trp] (Ac-[dDip][dL]DIIW-OH) | – | – | 41.3% | – |
